Test systems include SF-295; SNB-19; LOX IMVI; SK-MEL-2; HOP-62; M14; SF-539; SW-620; OVCAR-3; Malme-3M; SK-OV-3; TK-10; SK-MEL-28; SN12C; HL-60; RXF 393; UACC-257; K562; ACHN; NCI-H23.
What all share (assay): NCI tumour cell line growth inhibition, 48 h

The structures appear in SMILES notation.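 Growth conditions: 96-well plates. Treatment: test compound, 48 hours, 5 concentrations. Analysis: linear interpolation between bracketing concentrations; unreached endpoints set to highest concentration. GI50 = concentration required for 50% inhibition of growth.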 The source made the active and inactive calls. Rule as the data show it: active = GI50 up to about 1.1 µM and inactive = higher.

Here are results for ten compounds from ChEMBL document CHEMBL1201862, “PubChem BioAssay data set” (2004).

Turning to `O=C(O)CCn1cnc2c(S)ncnc21`, the GI50 with SF-295, with SNB-19, with LOX IMVI, in the assay with SK-MEL-2, in the assay with HOP-62 and with M14 was > 100 µM (inactive) throughout. Also, the GI50 in the assay on SF-539, with SW-620, in the assay on OVCAR-3, with Malme-3M, with SK-OV-3 and in the assay with TK-10 was > 100 µM (inactive) in each case. In addition, the GI50 in the assay with SK-MEL-28, with SN12C, with HL-60, in the assay on RXF 393, with UACC-257 and in the assay on K562 was > 100 µM (inactive) throughout. Moreover, the GI50 with ACHN and in the assay on NCI-H23 was > 100 µM (inactive) each time.
For `COC(=O)[C@@H]1CN(C(=O)CCc2ccccc2)C(=O)N1C(=O)OCc1ccccc1`, the GI50 in the assay with SF-295, in the assay on SNB-19, in the assay on LOX IMVI, in the assay with SK-MEL-2, with HOP-62 and in the assay with M14 was > 100 µM (inactive) throughout. Besides, the GI50 in the assay on SF-539, in the assay on SW-620, in the assay on OVCAR-3, in the assay on Malme-3M, in the assay with SK-OV-3 and in the assay with TK-10 was > 100 µM (inactive) throughout. For the same compound, the GI50 in the assay with SK-MEL-28, in the assay with SN12C, with HL-60, in the assay with RXF 393, in the assay on UACC-257 and in the assay on K562 was > 100 µM (inactive) in each case. Moreover, the GI50 in the assay with ACHN and in the assay with NCI-H23 was > 100 µM (inactive) in each case.
Regarding `O=C1c2c(O)ccc(O)c2C(=O)c2c(NCCNC(=O)C(O)C(O)C(O)C(O)CO)ccc(NCCNC(=O)C(O)C(O)C(O)C(O)CO)c21` (stereo not given), the GI50 in the assay with SF-295 is < 0.01 µM (active); in the assay with SNB-19 it was < 0.01 µM (active); in the assay with LOX IMVI, 0.0134 µM (active); in the assay on SK-MEL-2 it was 1.08 µM (active); in the assay on HOP-62, 0.011 µM (active); in the assay with M14 it was < 0.0195 µM (active). In addition, the GI50 with SF-539 is < 0.01 µM (active); with SW-620, 0.0213 µM (active); with OVCAR-3, 0.279 µM (active); with Malme-3M, 0.212 µM (active); in the assay on SK-OV-3 it was < 0.0233 µM (active); with TK-10, 0.161 µM (active). For the same compound, the GI50 was 0.211 µM (active) with SK-MEL-28; < 0.01 µM (active) with SN12C; < 0.01 µM (active) in the assay on HL-60; 0.221 µM (active) with RXF 393; 1.11 µM (active) in the assay with UACC-257; 0.0104 µM (active) in the assay on K562. Besides, the GI50 with ACHN was < 0.01 µM (active); in the assay with NCI-H23, 0.0178 µM (active).
With `CC(C)(C)OC(=O)CN1CCN(CC(=O)N2CCN(C(=O)OCc3ccccc3)CC2)CCN(CC(=O)OC(C)(C)C)CCN(CC(=O)N2CCN(C(=O)OCc3ccccc3)CC2)CC1`, the GI50 with SF-295 was 3.35 µM (inactive); in the assay with SNB-19 it was 3.48 µM (inactive); with LOX IMVI, 1.25 µM (inactive); in the assay on SK-MEL-2, 1.82 µM (inactive); in the assay on HOP-62, 3.7 µM (inactive); with M14 it was 3.21 µM (inactive). The GI50 in the assay with SF-539 is 2.17 µM (inactive); with SW-620, 1.67 µM (inactive); with OVCAR-3, 2.83 µM (inactive); with Malme-3M, 2.33 µM (inactive); in the assay with SK-OV-3 it was 3.47 µM (inactive); in the assay on TK-10, 5.92 µM (inactive). Further, the GI50 with SK-MEL-28 was 4.93 µM (inactive); in the assay on SN12C, 2.76 µM (inactive); with HL-60 it was 0.225 µM (active); with RXF 393, 3.61 µM (inactive); with UACC-257 it was 2.54 µM (inactive); in the assay on K562, 0.989 µM (active). The results for the GI50 in the assay on ACHN and in the assay with NCI-H23 were 7.73 µM (inactive) and 2.6 µM (inactive), respectively.
As for `O=[N+]([O-])c1ccc(C(O)(C#CCN2CCCC2)c2ccccc2)cc1` (stereo not given), the GI50 in the assay on SF-295 was 30.4 µM (inactive); in the assay on SNB-19, 98.2 µM (inactive); in the assay on LOX IMVI it was 16.2 µM (inactive); with SK-MEL-2, 24.5 µM (inactive); in the assay with HOP-62, 92.5 µM (inactive); in the assay on M14 it was 17.5 µM (inactive). Also, the GI50 with SF-539 is 82 µM (inactive); in the assay on SW-620 it was 98.9 µM (inactive); in the assay on OVCAR-3, 49 µM (inactive); in the assay on Malme-3M it was 16.6 µM (inactive); in the assay with SK-OV-3, 80.7 µM (inactive); with TK-10 it was 52.1 µM (inactive). For the same compound, the GI50 in the assay on SK-MEL-28 was 17.6 µM (inactive); with SN12C it was 38.3 µM (inactive); in the assay on HL-60, 18.4 µM (inactive); in the assay on RXF 393, 57.9 µM (inactive); in the assay on UACC-257 it was 25.6 µM (inactive); with K562, 19.7 µM (inactive). The GI50 is 56.2 µM (inactive) in the assay on ACHN and 96.8 µM (inactive) in the assay with NCI-H23.
Consider `COc1cccc(C2c3cc4c(cc3OC(C)(O)C2C)OCO4)c1O` (stereo not given), for which the GI50 is 2.96 µM (inactive) with SF-295; 5.2 µM (inactive) in the assay on SNB-19; 5.12 µM (inactive) with LOX IMVI; 9.89 µM (inactive) with SK-MEL-2; 4.2 µM (inactive) in the assay on HOP-62; 3.48 µM (inactive) with M14. Further, the GI50 was 2.67 µM (inactive) in the assay on SF-539; 3.25 µM (inactive) in the assay on SW-620; 2.81 µM (inactive) in the assay with OVCAR-3; 6.18 µM (inactive) in the assay on Malme-3M; 3.57 µM (inactive) in the assay on SK-OV-3; 5.56 µM (inactive) with TK-10. Also, the GI50 with SK-MEL-28 is 10.5 µM (inactive); with SN12C, 5.27 µM (inactive); in the assay with HL-60 it was 2.82 µM (inactive); in the assay with RXF 393 it was 3.69 µM (inactive); with UACC-257 it was 8.15 µM (inactive); in the assay on K562, 3.87 µM (inactive). Moreover, the GI50 is 7.06 µM (inactive) in the assay with ACHN and 0.966 µM (active) in the assay with NCI-H23.
Consider `N#Cc1c(NC(=O)C(F)(F)F)sc2c3c(=O)c4ccccc4c(=O)c=3oc3ccccc3c12`, for which the GI50 in the assay on SF-295 is 11.7 µM (inactive); with SNB-19, 20.3 µM (inactive); in the assay with LOX IMVI, 13 µM (inactive); with SK-MEL-2 it was 15 µM (inactive); with HOP-62, 20.5 µM (inactive); in the assay on M14, 21.7 µM (inactive). Moreover, the GI50 in the assay with SF-539 was 7.24 µM (inactive); in the assay with SW-620, 25.1 µM (inactive); in the assay on OVCAR-3 it was 10.8 µM (inactive); with Malme-3M, 1.1 µM (active); in the assay with SK-OV-3, 29.4 µM (inactive); in the assay with TK-10 it was 33 µM (inactive). In addition, the GI50 in the assay on SK-MEL-28 is 20.4 µM (inactive); in the assay with SN12C it was 21.9 µM (inactive); with HL-60, 4.46 µM (inactive); in the assay with RXF 393, 10 µM (inactive); with UACC-257, 16.7 µM (inactive); in the assay with K562, 19.8 µM (inactive). Besides, the GI50 was 21.1 µM (inactive) with ACHN and 9.84 µM (inactive) in the assay with NCI-H23.
Take `Nc1ccc(S(=O)(=O)C23CC4CC(CC(C4)C2)C3)cc1`: the GI50 in the assay with SF-295 was > 100 µM (inactive); in the assay on SNB-19, > 100 µM (inactive); in the assay on LOX IMVI, 70.8 µM (inactive); with SK-MEL-2, > 100 µM (inactive); in the assay with HOP-62, > 100 µM (inactive); in the assay on M14, > 100 µM (inactive). For the same compound, the GI50 was > 100 µM (inactive) in the assay with SF-539; > 100 µM (inactive) in the assay on SW-620; 77.8 µM (inactive) with OVCAR-3; > 100 µM (inactive) in the assay on Malme-3M; > 100 µM (inactive) in the assay on SK-OV-3; > 100 µM (inactive) in the assay on TK-10. For the same compound, the GI50 is > 100 µM (inactive) with SK-MEL-28; > 100 µM (inactive) with SN12C; 27.2 µM (inactive) in the assay with HL-60; 30.1 µM (inactive) in the assay with RXF 393; > 100 µM (inactive) in the assay with UACC-257; 89.5 µM (inactive) in the assay on K562. The GI50 in the assay on ACHN and in the assay on NCI-H23 was > 100 µM (inactive) in each case.
`CO/N=C(\C(=O)O/C(=N/C1CCCCC1)NC1CCCCC1)c1csc(NC(c2ccccc2)(c2ccccc2)c2ccccc2)n1`: the GI50 in the assay on SF-295 is > 10 µM (inactive); with SNB-19, > 10 µM (inactive); with LOX IMVI, 9.46 µM (inactive); in the assay with SK-MEL-2 it was > 10 µM (inactive); with HOP-62, > 10 µM (inactive); with M14, > 10 µM (inactive). For the same compound, the GI50 with SF-539, in the assay on SW-620, with OVCAR-3, in the assay with Malme-3M, in the assay on SK-OV-3 and with TK-10 was > 10 µM (inactive) in each case. Besides, the GI50 was > 10 µM (inactive) in the assay on SK-MEL-28; > 10 µM (inactive) with SN12C; > 10 µM (inactive) with HL-60; 5.05 µM (inactive) in the assay on RXF 393; > 10 µM (inactive) in the assay on UACC-257; > 10 µM (inactive) with K562. Further, the GI50 with ACHN and with NCI-H23 was > 10 µM (inactive) throughout.
Turning to `Cc1ccc(S(=O)(=O)N/N=C/C(=C/c2ccc(Cl)cc2)CC(/C=N/NS(=O)(=O)c2ccc(C)cc2)=C\c2ccc(Cl)cc2)cc1`, the GI50 is 14 µM (inactive) in the assay with SF-295; 8.77 µM (inactive) in the assay with SNB-19; 2.1 µM (inactive) with LOX IMVI; 7.76 µM (inactive) with SK-MEL-2; 19.5 µM (inactive) in the assay with HOP-62; 10.8 µM (inactive) in the assay with M14. In addition, the GI50 in the assay on SF-539 was 12.1 µM (inactive); with SW-620 it was 4.47 µM (inactive); in the assay with OVCAR-3, 3.07 µM (inactive); in the assay with Malme-3M, 8.2 µM (inactive); in the assay on SK-OV-3 it was 44.4 µM (inactive); in the assay with TK-10, 17.9 µM (inactive). The GI50 in the assay with SK-MEL-28 is 5.52 µM (inactive); with SN12C, 7.08 µM (inactive); in the assay on HL-60, 3.59 µM (inactive); in the assay on RXF 393, 3.56 µM (inactive); with UACC-257 it was 11.4 µM (inactive); in the assay with K562, 2.86 µM (inactive). In addition, the GI50 in the assay on ACHN is 6.04 µM (inactive); with NCI-H23, 6.93 µM (inactive).
